The values below come from US6511811B1, “Protein kinase C antagonist related to insulin receptor” (The Regents of the University of California, priority 1995, dated 2003).

The subject of assay [1] is insulin receptor kinase activity. The following applies: incubation of cells with the inhibitor; Mosthaf et al.; cited from earlier work.
Another assay deals with insulin receptor. The experiment in a line: 32P labelling and two-dimensional tryptic phosphopeptide analysis of insulin receptor. It counts as cell-based, human. The following applies: stimulation of 32P-labelled HIRcB cells; FIG. 8. The method, then: HIRcB cells were serum-starved for 16 h and then incubated in phosphate-free DMEM containing 2 mCi/ml ^32P-orthophosphate for 3 h. The cells were then stimulated with high glucose (25 mM) or insulin as indicated. The cells were lysed, and the insulin receptor was immunoprecipitated using […] antibody 83-14 as described. The washed immunoprecipitates were analyzed by SDS electrophoresis. The labeled β-subunit was visualized by autoradiography, excised from the gels and recovered by electroelution.
Polyacrylamide-gel pieces containing ^32P-labeled IR and IRS-1 following in vitro phosphorylation were electroeluted in 20 mM Tris-HCl, pH 8.0, 2 mM EDTA, 0.1% SDS, and 0.1% 2-mercaptoethanol for 4 h. Eluted protein was precipitated with four volumes of acetone at −80° C. for 60 min followed by centrifugation at room temperature for 10 min at 10,000 g. The pellet was dried and digested with 10 μg of TPCK-treated trypsin (Worthington Diagnostic Systems, Freehold, N.J.) in 100 μl of 100 mM N-ethylmorpholine acetate (NMA), pH 8.2, for 24 h at 37° C. A further 10 μg of TPCK-treated trypsin was added and digestion continued for 12 h. The peptides were lyophilized, resuspended with water, and re-lyophilized at least three times. The ^32P-labeled tryptic peptides were then resuspended in 5 μl of electrophoresis buffer and spotted onto thin layer cellulose plates. […]

The test system of assay [2] is HIRcB cells. Kind of assay: Microinjection of insulin receptor-derived peptides, insulin-stimulated DNA synthesis (BrDU incorporation). It counts as cell-based, Rat. Conditions: FIG. 13; for Insulin-stimulated DNA synthesis: high glucose (25 mM); for Insulin-stimulated DNA synthesis / DNA synthesis in insulin-stimulated cells: peptide 10 mM microinjected, 100 ng/ml insulin; for DNA synthesis in insulin-stimulated cells: normal glucose (5 mM). The method, then: HIRcB cells were grown to sub-confluence on glass coverslips in D-MEM medium containing normal (5 mM) or high (25 mM) glucose and rendered quiescent by serum deprivation for 24 h. Synthetic cyclo-peptides were derived from the human insulin receptor, containing sequence […] (SEQ ID NO:5) (Serine-1035) and […] (SEQ ID NO:1) (Serine-1270) were synthesized using methods well known in the art. The peptides were dissolved in microinjection buffer containing 5 mM NaPO4 and 100 mM KCl, pH 7.2, to a final concentration of 10 mM. All microinjected reagents contained rabbit IgG (5 mg/ml) to allow the identification […] cells. Samples were microinjected into the cell cytoplasm using an automated microinjection system at a typical needle pressure of about 100 hectopascals resulting in the introduction of 10^5 molecules of IgG.
Approximately 1 h after microinjection, the cells were stimulated with 100 ng/ml insulin and […] BrDU was added. Cells were incubated at 37° C. for an additional 16 h, and then fixed and stained using a monoclonal anti-BrDU antibody. Injected cells were identified with fluorescein isothiocyanate-conjugated donkey anti-rabbit IgG. Nuclear BrDU incorporation was detected with tetramethylrhodamine isothiocyanate-conjugated donkey anti-mouse IgG. The cells were analyzed by fluorescence microscopy.

In assay [3] the test system is HIRcB cells. Kind of assay: Insulin-stimulated DNA synthesis (BrDU incorporation) with PKC inhibitors. It counts as cell-based, Rat. Conditions: microinjection of the inhibitor peptide, high glucose 25 mM; FIG. 11. The method, then:
HIRcB or ΔCT cells were cultured on acid-washed glass coverslips, grown to semi-confluence, and then starved in serum-free DME with 1 mM glucose. The peptide was dissolved in microinjection buffer containing 5 mM NaPO4 and 100 mM KCl, pH 7.4. The cells were microinjected with the PKC inhibitor peptide using glass capillary needles. Approximately 10 femtoliters of this solution was introduced into each cell. The injection included 1×10^6 molecules of IgG as marker for microinjection.
Two hours after microinjection, cells were incubated with BrDU plus various concentrations of growth factors for 16 h at 37° C. The cells were fixed with acid alcohol (90% ethanol, 5% acetic acid) for 20 min at 22° C., and then incubated with mouse monoclonal anti-BrDU antibody for 1 h at 22° C. […] After coverslips were mounted, the cells were analyzed and photographed with an Axiophot fluorescence microscope (Zeiss). […]
The effects of high glucose upon insulin-induced DNA synthesis were examined by first exposing cells to high glucose for 1 h, and then to insulin and BrDU for an additional 18 h. High glucose decreased DNA synthesis in insulin-stimulated cells by 30%, as measured by BrDU incorporation (FIG. 10).

Ends that are not written are not given here.

`CC1CNCCN1S(=O)(=O)c1cccc2cnccc12` (stereo not drawn) [H7]: the “Effect on hyperglycemia-induced inhibition of insulin receptor kinase activity” value in assay [1] was “is inhibited”. Take `CCCCCCCCCCCCCC(=O)O[C@@H]1[C@@H](C)[C@@]2(O)[C@@H](C=C(CO)C[C@]3(O)C(=O)C(C)=C[C@@H]23)[C@@H]2C(C)(C)[C@]12OC(C)=O` [Phorbol ester]: the “Increase of insulin receptor phosphorylation” value in the assay with insulin receptor is listed as 1.5 fold. Regarding “DDLHPSFPEVS (also: cyclized; listed as Homo sapiens) [Ser-1270]”, in the assay with HIRcB cells [2], the “Insulin-stimulated DNA synthesis” value is reported as “significantly increased insulin-stimulated DNA synthesis” and the “DNA synthesis in insulin-stimulated cells” value is on record as “slightly increased DNA synthesis”. Also, the “Increase in DNA synthesis compared between the two injected peptides” value in the assay with HIRcB cells [2] (normal and high glucose, in each instance) is given as “greater than in Ser-1035 peptide-injected cells”. “KTVNESASLRE (also: cyclized; listed as Homo sapiens) [Ser-1035]”: in the assay on HIRcB cells [2], the “Insulin-stimulated DNA synthesis” value is “significantly increased insulin-stimulated DNA synthesis” and the “DNA synthesis in insulin-stimulated cells” value was “slightly increased DNA synthesis”. As for RFARKGALRQKNV [peptide 19-31], the “Reversal of high glucose inhibition of insulin-stimulated DNA synthesis (BrDU incorporation)” value in the assay with HIRcB cells [3] is reported as “partially reversed inhibition of DNA synthesis”. Take polymyxin B: the “Effect on hyperglycemia-induced inhibition of insulin receptor kinase activity” value in assay [1] is recorded as “is inhibited”.
